Data from patent US12281122B1, “PI3K inhibitors” (Cogent Biosciences, Inc., priority 2023, dated 2025).

Columns and labels:
[1] = system: T47D (PI3Kα-H1047R) cell line; assay: HTRF phospho-AKT(S473) cell assay in T47D cells; format: cell-based, human; conditions: Homo sapiens; HTRF phospho-AKT(S473), T47D (PI3Kα-H1047R) cells, 2 hours compound incubation
Method in brief: (§1)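 pAKT(S473) in lysates read by HTRF after a 2 h, 37 °C compound exposure (12-point 1:3 series, max 0.5% DMSO). SKBR3 (wild type, top 10 μM) received 70 ng/ml PDGF-BB during the final 15 min; T47D (H1047R, top 5 μM) was unstimulated. IC50 values derived from the dose-response.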

[2] = system: SKBR3 (PI3Kα-Wild Type) cell line; assay: HTRF phospho-AKT(S473) cell assay in SKBR3 cells; format: cell-based, human; conditions: Homo sapiens, SK-BR-3; HTRF phospho-AKT(S473), SKBR3 (PI3Kα-Wild Type) cells, 2 hours compound incubation, PDGF-BB stimulated
Method in brief: as §1

IC50 [1] | IC50 [2] | SMILES
< 0.25 µM | 1 to 5 µM | Cc1cc([C@@H](C)Nc2ccc(Cl)nc2C(=O)NS(C)(=O)=O)c2nc(-c3ccc(-c4cnn(C)c4)c(F)c3)n(C)c(=O)c2c1 [Compound 794, (R)-6-chloro-3-((1-(2-(3-fluoro-4-(1-methyl-1H-pyrazol-4-yl)phenyl)-3,6-dimethyl-4-oxo-3,4-dihydroquinazolin-8-yl)ethyl)amino)-N-(methylsulfonyl) picolinamide]
< 0.25 µM | 1 to 5 µM | Cc1cc([C@@H](C)Nc2ccc(Cl)nc2C(=O)NS(C)(=O)=O)c2nc(-c3ccc4c(c3)CN(C)C4=O)n(C)c(=O)c2c1 [Compound 796, (R)-6-chloro-3-((1-(3,6-dimethyl-2-(2-methyl-1-oxoisoindolin-5-yl)-4-oxo-3,4-dihydroquinazolin-8-yl)ethyl)amino)-N-(methylsulfonyl) picolinamide]
< 0.25 µM | 1 to 5 µM | Cc1cc([C@@H](C)Nc2ccc(Cl)nc2C(=O)NS(C)(=O)=O)c2nc(-c3ccc4nn(C)cc4c3C)n(C)c(=O)c2c1 [Compound 798, (R)-6-chloro-3-((1-(2-(2,4-dimethyl-2H-indazol-5-yl)-3,6-dimethyl-4-oxo-3,4-dihydroquinazolin-8-yl)ethyl)amino)-N-(methylsulfonyl) picolinamide]
0.25 to 0.5 µM | ≥ 5 µM | Cc1cc([C@@H](C)Nc2ccc(Cl)nc2C(=O)NS(C)(=O)=O)c2nc(-c3ccc(-c4ncc(C#N)cc4C)c(F)c3)n(C)c(=O)c2c1 [Compound 799, (R)-6-chloro-3-((1-(2-(4-(5-cyano-3-methylpyridin-2-yl)-3-fluorophenyl)-3,6-dimethyl-4-oxo-3,4-dihydroquinazolin-8-yl)ethyl)amino)-N-(methylsulfonyl) picolinamide]
< 0.25 µM | 1 to 5 µM | CC(=O)N1CCN(c2cc(F)c(-c3nc4c([C@@H](C)Nc5ccc(Cl)nc5C(=O)NS(C)(=O)=O)cc(C)cc4c(=O)n3C)cc2F)CC1 [Compound 800, (R)-3-((1-(2-(4-(4-acetylpiperazin-1-yl)-2,5-difluorophenyl)-3,6-dimethyl-4-oxo-3,4-dihydroquinazolin-8-yl)ethyl)amino)-6-chloro-N-(methylsulfonyl) picolinamide]
< 0.25 µM | 1 to 5 µM | Cc1cc([C@@H](C)Nc2ccc(Cl)nc2C(=O)NS(C)(=O)=O)c2nc(-c3ccc(-c4cn(C)cn4)cc3)n(C)c(=O)c2c1 [Compound 802, (R)-6-chloro-3-((1-(3,6-dimethyl-2-(4-(1-methyl-1H-imidazol-4-yl)phenyl)-4-oxo-3,4-dihydroquinazolin-8-yl)ethyl)amino)-N-(methylsulfonyl) picolinamide]
< 0.25 µM | ≥ 5 µM | CC(=O)N1CCN(c2ccc(-c3nc4c([C@@H](C)Nc5ccc(Cl)nc5C(=O)NS(C)(=O)=O)cc(C)cc4c(=O)n3C)cc2F)CC1(C)C [Compound 804, (R)-3-((1-(2-(4-(4-acetyl-3,3-dimethylpiperazin-1-yl)-3-fluorophenyl)-3,6-dimethyl-4-oxo-3,4-dihydroquinazolin-8-yl)ethyl)amino)-6-chloro-N-(methylsulfonyl) picolinamide]
< 0.25 µM | 1 to 5 µM | Cc1cc([C@@H](C)Nc2ccc(Cl)nc2C(=O)NS(C)(=O)=O)c2nc(-c3ccc(Nc4cnn(C)c4)c(F)c3)n(C)c(=O)c2c1 [Compound 806, (R)-6-chloro-3-((1-(2-(3-fluoro-4-((1-methyl-1H-pyrazol-4-yl)amino)phenyl)-3,6-dimethyl-4-oxo-3,4-dihydroquinazolin-8-yl)ethyl)amino)-N-(methylsulfonyl) picolinamide]
0.25 to 0.5 µM | ≥ 5 µM | Cc1cc([C@@H](C)Nc2ccc(Cl)nc2C(=O)NS(C)(=O)=O)c2nc(-c3ccn(-c4ccn(C)n4)c(=O)c3)n(C)c(=O)c2c1 [Compound 807, (R)-6-chloro-3-((1-(3,6-dimethyl-2-(1-(1-methyl-1H-pyrazol-3-yl)-2-oxo-1,2-dihydropyridin-4-yl)-4-oxo-3,4-dihydroquinazolin-8-yl)ethyl)amino)-N-(methylsulfonyl) picolinamide]
0.25 to 0.5 µM | ≥ 5 µM | Cc1cc([C@@H](C)Nc2ccc(Cl)nc2C(=O)NS(C)(=O)=O)c2nc(-c3ccnc(O[C@@H]4CCN(C)CC4(F)F)c3)n(C)c(=O)c2c1 [Compound 809, 6-chloro-3-(((R)-1-(2-(2-(((R)-3,3-difluoro-1-methylpiperidin-4-yl)oxy)pyridin-4-yl)-3,6-dimethyl-4-oxo-3,4-dihydroquinazolin-8-yl)ethyl)amino)-N-(methylsulfonyl) picolinamide]
0.25 to 0.5 µM | ≥ 5 µM | Cc1cc([C@@H](C)Nc2ccc(Cl)nc2C(=O)NS(C)(=O)=O)c2nc(-c3ccccc3)n(C)c(=O)c2c1 [Compound 813, (R)-6-chloro-3-((1-(3,6-dimethyl-4-oxo-2-phenyl-3,4-dihydroquinazolin-8-yl)ethyl)amino)-N-(methylsulfonyl) picolinamide]
< 0.25 µM | 1 to 5 µM | Cc1cc([C@@H](C)Nc2ccc(Cl)nc2C(=O)NS(C)(=O)=O)c2nc(-c3cnc(N4CCOCC4)nc3)n(C)c(=O)c2c1 [Compound 814, (R)-6-chloro-3-((1-(3,6-dimethyl-2-(2-morpholinopyrimidin-5-yl)-4-oxo-3,4-dihydroquinazolin-8-yl)ethyl)amino)-N-(methylsulfonyl) picolinamide]

Further lines, the compound ahead of its results:

SMILES | IC50 [1] | IC50 [2]
Cc1cc([C@@H](C)Nc2ccc(Cl)nc2C(=O)NS(C)(=O)=O)c2nc(-c3ccc(OCCN4CCOCC4)cc3)n(C)c(=O)c2c1 [Compound 793, (R)-6-chloro-3-((1-(3,6-dimethyl-2-(4-(2-morpholinoethoxy)phenyl)-4-oxo-3,4-dihydroquinazolin-8-yl)ethyl)amino)-N-(methylsulfonyl) picolinamide] | < 0.25 µM | ≥ 5 µM
Cc1cc([C@@H](C)Nc2ccc(Cl)nc2C(=O)NS(C)(=O)=O)c2nc(-c3ccc4nn(CC5CC5)cc4c3)n(C)c(=O)c2c1 [Compound 795, (R)-6-chloro-3-((1-(2-(2-(cyclopropylmethyl)-2H-indazol-5-yl)-3,6-dimethyl-4-oxo-3,4-dihydroquinazolin-8-yl)ethyl)amino)-N-(methylsulfonyl) picolinamide] | < 0.25 µM | 1 to 5 µM
Cc1cc([C@@H](C)Nc2ccc(Cl)nc2C(=O)NS(C)(=O)=O)c2nc(-c3ccc4nn(CCO)cc4c3)n(C)c(=O)c2c1 [Compound 797, (R)-6-chloro-3-((1-(2-(2-(2-hydroxyethyl)-2H-indazol-5-yl)-3,6-dimethyl-4-oxo-3,4-dihydroquinazolin-8-yl)ethyl)amino)-N-(methylsulfonyl) picolinamide] | < 0.25 µM | 1 to 5 µM
CC(=O)N1CC2CCC(C1)N2c1ccc(-c2nc3c([C@@H](C)Nc4ccc(Cl)nc4C(=O)NS(C)(=O)=O)cc(C)cc3c(=O)n2C)cc1F [Compound 801, 3-(((1R)-1-(2-(4-(3-acetyl-3,8-diazabicyclo[3.2.1]octan-8-yl)-3-fluorophenyl)-3,6-dimethyl-4-oxo-3,4-dihydroquinazolin-8-yl)ethyl)amino)-6-chloro-N-(methylsulfonyl) picolinamide] | < 0.25 µM | ≥ 5 µM
C[C@@H](Nc1ccc(Cl)nc1C(=O)NS(C)(=O)=O)c1cc(F)cc2c(=O)n(C)c(-c3ccc4nn(C)cc4c3)nc12 [Compound 805, (R)-6-chloro-3-((1-(6-fluoro-3-methyl-2-(2-methyl-2H-indazol-5-yl)-4-oxo-3,4-dihydroquinazolin-8-yl)ethyl)amino)-N-(methylsulfonyl) picolinamide] | 0.25 to 0.5 µM | 1 to 5 µM
Cc1cc([C@@H](C)Nc2ccc(Cl)nc2C(=O)NS(C)(=O)=O)c2nc(-c3ccnc(O[C@@H]4CCNCC4(F)F)c3)n(C)c(=O)c2c1 [Compound 808, 6-chloro-3-(((R)-1-(2-(2-(((R)-3,3-difluoropiperidin-4-yl)oxy)pyridin-4-yl)-3,6-dimethyl-4-oxo-3,4-dihydroquinazolin-8-yl)ethyl)amino)-N-(methylsulfonyl) picolinamide] | 0.25 to 0.5 µM | ≥ 5 µM
Cc1cnc(N2C[C@@H]3[C@H](C2)[C@H]3c2nc3c([C@@H](C)Nc4ccc(Cl)nc4C(=O)NS(C)(=O)=O)cc(C)cc3c(=O)n2C)nc1 [Compound 810, 6-chloro-3-(((R)-1-(3,6-dimethyl-2-((1R,5S,6r)-3-(5-methylpyrimidin-2-yl)-3-azabicyclo[3.1.0]hexan-6-yl)-4-oxo-3,4-dihydroquinazolin-8-yl)ethyl)amino)-N-(methylsulfonyl) picolinamide] | 0.25 to 0.5 µM | ≥ 5 µM
Cc1cc([C@@H](C)Nc2ccc(Cl)nc2C(=O)NS(C)(=O)=O)c2nc([C@H]3[C@@H]4CN(c5cnc(C)cn5)C[C@@H]43)n(C)c(=O)c2c1 [Compound 811, 6-chloro-3-(((R)-1-(3,6-dimethyl-2-((1R,5S,6r)-3-(5-methylpyrazin-2-yl)-3-azabicyclo[3.1.0]hexan-6-yl)-4-oxo-3,4-dihydroquinazolin-8-yl)ethyl)amino)-N-(methylsulfonyl) picolinamide] | 0.25 to 0.5 µM | ≥ 5 µM
CCn1c(-c2ccc3nn(C)cc3c2)nc2c([C@@H](C)Nc3ccc(Cl)nc3C(=O)NS(C)(=O)=O)cc(C)cc2c1=O [Compound 812, (R)-6-chloro-3-((1-(3-ethyl-6-methyl-2-(2-methyl-2H-indazol-5-yl)-4-oxo-3,4-dihydroquinazolin-8-yl)ethyl)amino)-N-(methylsulfonyl) picolinamide] | < 0.25 µM | 1 to 5 µM
